Legend:
hMAO-A = target: T1, hMAO-A (Homo sapiens, UniProt P21397); assay: biochemical; conditions: read-out: hMAO-A (IC50); recombinant hMAO-A, p-tyramine substrate
T1 sequence (P21397 1-527): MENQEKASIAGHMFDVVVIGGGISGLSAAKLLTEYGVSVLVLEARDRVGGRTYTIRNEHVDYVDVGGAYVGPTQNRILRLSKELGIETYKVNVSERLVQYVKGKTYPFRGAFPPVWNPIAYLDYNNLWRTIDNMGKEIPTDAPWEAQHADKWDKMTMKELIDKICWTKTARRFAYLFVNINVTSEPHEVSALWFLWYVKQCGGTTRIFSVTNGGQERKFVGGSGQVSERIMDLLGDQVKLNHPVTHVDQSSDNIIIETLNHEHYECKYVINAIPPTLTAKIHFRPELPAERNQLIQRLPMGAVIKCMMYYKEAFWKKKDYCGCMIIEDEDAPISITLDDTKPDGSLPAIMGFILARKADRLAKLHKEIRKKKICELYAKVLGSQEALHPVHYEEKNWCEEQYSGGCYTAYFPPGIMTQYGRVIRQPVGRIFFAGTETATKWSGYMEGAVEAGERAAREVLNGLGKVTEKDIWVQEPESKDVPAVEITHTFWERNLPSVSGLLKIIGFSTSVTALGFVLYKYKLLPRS
Method: (§1) The hMAO-A/B inhibition of all compounds was determined using the Amplex Red MAO assay kit.
(§2) Assays were performed following the general procedure previously described.[98] […] The specific fluorescence emission was calculated after subtracting the background activity, which was determined from wells containing all components except the hMAO isoforms, which were replaced with PBS.

hMAO-B = target: T2, hMAO-B (Homo sapiens, UniProt P27338); assay: biochemical; conditions: read-out: hMAO-B (IC50); recombinant hMAO-B, p-tyramine substrate
T2 sequence (P27338 1-520): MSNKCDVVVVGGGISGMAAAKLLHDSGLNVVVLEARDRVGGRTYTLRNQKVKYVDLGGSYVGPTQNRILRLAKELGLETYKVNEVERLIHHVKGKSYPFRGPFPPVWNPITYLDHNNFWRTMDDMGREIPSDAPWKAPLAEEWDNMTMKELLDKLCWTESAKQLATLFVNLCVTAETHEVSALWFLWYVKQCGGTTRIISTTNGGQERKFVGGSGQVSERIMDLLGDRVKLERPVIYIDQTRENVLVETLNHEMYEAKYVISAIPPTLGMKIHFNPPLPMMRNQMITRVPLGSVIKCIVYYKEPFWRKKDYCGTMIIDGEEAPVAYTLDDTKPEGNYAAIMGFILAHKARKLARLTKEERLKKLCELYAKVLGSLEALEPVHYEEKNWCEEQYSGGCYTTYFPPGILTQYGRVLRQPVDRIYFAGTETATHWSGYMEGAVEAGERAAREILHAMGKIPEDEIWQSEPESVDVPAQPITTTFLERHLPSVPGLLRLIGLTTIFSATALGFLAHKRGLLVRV
Method: as §1, §2

[1] = system: NRF2-ARE signaling pathway; assay: cells; type: cell-based; conditions: concentration required to double luciferase activity, AREc32 cells, 24 h
Method: AREc32 cells were plated in 96-well white plates (2 × 10^4 cells/well). […]. The AREc32 cells constitutively express the plasmid pGL-8xARE that implements eight copies of the EpRE sequences, followed by the luciferase reporter gene. Therefore, NRF2 induction is related to the activation of EpRE sequences, expressing luciferase at the same extent as EpRE sequences are activated. The Luciferase Assay System (Promega E1500) was used according to the provider’s protocol, and luminescence was quantified in an Orion II microplate luminometer (Berthold, Germany). Fold induction of luciferase activity was normalized to basal conditions. Data are expressed as CD values, expressing the concentration required to double the luciferase activity. CD values were calculated from dose–response curves generated from the fold induction of control conditions versus inducer concentration and fitted by nonlinear regression and data interpolated to twofold induction concentration.[68]

[2] = Oxygen radical absorbance capacity (ORAC-FL) assay; conditions: trolox = 1.0
Method: 2,2′-Azobis-(amidinopropane) dihydrochloride (AAPH), trolox, and fluorescein (FL) were purchased from Sigma-Aldrich. The reaction was carried out in a 75 mM phosphate buffer (pH 7.4), and the final reaction mixture was 200 μL. […] Antioxidant curves (fluorescence vs time) were first normalized to the curve of the blank corresponding to the same assay, and the area under the curve (AUC) of fluorescence decay was calculated. The net AUC corresponding to a sample was calculated by subtracting the AUC corresponding to the blank. Regression equations between the net AUC and antioxidant concentration were calculated for all the samples.

QR2 = target: T3, QR2 (Mesocricetus auratus, UniProt A0ABM2YAB8); assay: biochemical; conditions: for inhibition at 10 µM: read-out: QR2 percentage of inhibition (in brackets)
T3 sequence (A0ABM2YAB8 1-231): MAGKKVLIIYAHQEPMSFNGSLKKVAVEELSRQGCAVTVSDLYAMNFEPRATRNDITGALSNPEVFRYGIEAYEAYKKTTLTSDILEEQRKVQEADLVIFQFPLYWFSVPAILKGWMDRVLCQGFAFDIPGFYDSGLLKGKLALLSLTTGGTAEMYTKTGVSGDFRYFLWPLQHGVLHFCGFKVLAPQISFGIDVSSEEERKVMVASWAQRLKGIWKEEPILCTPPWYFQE
Method: The QR2 experiments were performed in membrane homogenates of hamster brains (https://www.eurofins.fr, catalog ref. 0088). […] First, radioligand displacement was measured at a fixed compound concentration (10 μM) in each receptor.

in vitro = in vitro ADME; conditions: for Papp at 240 min, 100 μg mL^–1: PAMPA, pH 7.4, class from PAMPA-BBB Pe, read-out: CNS-permeability prediction; for PAMPA-BBB (Pe, 10^–6 cm s^–1): porcine brain lipid, PBS/EtOH (70:30), 240 min, 25 °C
adult mice NSCs = assay: Neurogenic studies in SGZ-derived neurospheres; type: cell-based, mouse; conditions: 10 μM, data not shown
Method: Adult mice NSCs were isolated from SGZ of the dentate gyrus of the hippocampus and grown as free-floating neurospheres (NS).[72],[78] The neurogenic potential of each compound was determined using fluorescence confocal microscopy by quantifying the expression of two well-known neuronal markers: human β-III-tubulin (TuJ-1 clone) and microtubule-associated protein 2 (MAP-2). TuJ-1 is expressed in immature neurons, whereas the expression of MAP-2 indicates a consolidated mature neuronal stage.[79] Given that neurogenesis involves not only the proliferation of NSC but also the migration of newly generated cells, the greatest migration distance promoted by each compound was also measured (Figure 8).
Adult male C57BL/6 mice (3 months old) were used in order to determine neurogenesis activity. […] DAPI staining was used as a nuclear marker. Fluorescent representative images were acquired with a Nikon fluorescence microscope 90i coupled to a digital camera Qi. The microscope configuration was adjusted to produce the optimum signal-to-noise ratio. […] Quantification was undertaken using the image analySIS software (Soft Imaging System Corp., Münster, Germany) and normalized to total nuclei (DAPI-stained). The intensity of immunostaining of neurites from TuJ1-labeled cells and the number of MAP-2-positive cells were estimated from nine neurospheres per condition over three independent experiments. The outgrowth of the neurosphere cells was examined under a phase-contrast microscope and the farthest distance of cell migration was calculated from the edge of the sphere. At least 10 plated neurospheres per treatment were analyzed.

[3] = system: human neuroblastoma SH-SY5Y cell line; assay: Cell viability per se in SH-SY5Y cells (MTT); conditions: 100 μM, 24 h
Method: The cells from the 3rd to 12th passage were seeded at a density of 80,000 cells/well in 96-well plates and were used to assess the properties of our compounds.
After treatment, the SH-SY5Y cells, rat primary neuronal cultures, and hippocampal slices were incubated for 90 min with tetrazolium salt MTT (0.5 mg/mL) solution. This assay is based on the reduction of MTT (yellow salt) to purple insoluble formazan crystals by oxidoreductase enzymes from living cells. Thereafter, in order to solubilize the formazan crystal, the cells/slices were incubated for another 45 min in dimethyl sulfoxide (DMSO). […] The basal absorbance was set to 100%, and the results were normalized to basal conditions.

[4] = system: rat primary cortical neurons; assay: Neuroprotection against OA-induced toxicity in rat primary cortical neuronal cultures (MTT); conditions: compound 1 μM, OA 10 nM
hMT2R = target: T4, hMT2R (Homo sapiens, UniProt P49286); assay: hMT2R radioligand displacement in transfected CHO cells; conditions: read-out: hMT2R binding affinity (Ki)
T4 construct: host or cells: Chinese hamster ovary cells
T4 sequence (P49286 1-362): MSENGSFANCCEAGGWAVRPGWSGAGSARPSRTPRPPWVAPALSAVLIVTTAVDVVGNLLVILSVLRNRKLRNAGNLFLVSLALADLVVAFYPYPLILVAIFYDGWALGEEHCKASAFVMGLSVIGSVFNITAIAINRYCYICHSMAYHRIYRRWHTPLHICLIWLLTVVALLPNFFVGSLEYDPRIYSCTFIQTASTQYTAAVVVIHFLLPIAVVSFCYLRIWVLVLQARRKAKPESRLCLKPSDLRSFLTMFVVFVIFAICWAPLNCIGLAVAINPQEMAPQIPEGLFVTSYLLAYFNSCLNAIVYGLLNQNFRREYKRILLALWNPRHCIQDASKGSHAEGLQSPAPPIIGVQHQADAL
Method: Assays in MT1R and MT2R were carried out using human receptors that were stably transfected in Chinese hamster ovary cells (https://www.eurofins.fr, catalog refs. 1538 and 1687). The QR2 experiments were performed in membrane homogenates of hamster brains (https://www.eurofins.fr, catalog ref. 0088). […] First, radioligand displacement was measured at a fixed compound concentration (10 μM) in each receptor. […] (E)-Resveratrol and melatonin were tested for comparative purposes.

mouse hippocampal slices = conditions: 1 μM, OA 1 μM, 6 h
Method: Once the treatment was ended, the cell viability was measured by the MTT method, cell death with the fluorescent probe PI (1 μg/mL), and ROS production with the fluorescent probe H2DCFDA (10 μL/mL).
Fluorescence from whole slices was measured as the mean intensity with an inverted Nikon eclipse T2000-U microscope (Nikon Instruments). […] The results were normalized to the basal condition, which was considered as 100%. Image analysis was performed using Fiji software.

| Compound | IC50 (hMAO-A) [µM] | IC50 (hMAO-B) [µM] | NRF2 (CD, μM) [1] [µM] | ORAC (trolox equiv) [2] [trolox equiv] | IC50 (QR2) [µM] | inhibition at 10 µM (QR2) [%] | Papp at 240 min, 100 μg mL^–1 (in vitro) [nm/s] | PAMPA-BBB (Pe, 10^–6 cm s^–1) (in vitro) | capacity to differentiate NSCs (adult mice NSCs) | reduction of cell viability [3] | neuroprotection against OA-induced toxicity [4] | Ki (hMT2R) [µM] | cell viability (MTT) (mouse hippocampal slices) |
| --- | --- | --- | --- | --- | --- | --- | --- | --- | --- | --- | --- | --- | --- |
| C#CCn1nc(/C=C/c2ccccc2)oc1=O [4a, 5-[(E)-2-Phenylethenyl]-3-(prop-2-yn-1-yl)-1,3,4-oxadiazol-2(3H)-one] | > 50 | 9.87 ± 1.22 | 16.9 ± 0.4 | <0.1 | > 10 | 44 | > 40 | 13.6 ± 0.5 10^–6 cm s^–1 | poor capacity to differentiate NSCs | around 30% | not able to significantly reduce neuronal death | – | – |
| C#CCNC(=O)/C=C/c1cccc(OC)c1 [6d, (2E)-3-(3-Methoxyphenyl)-N-(prop-2-yn-1-yl)prop-2-enamide] | > 50 | > 50 | – | <0.1 | ~10 | 76 | > 40 | 4.1 ± 0.2 10^–6 cm s^–1 | – | – | – | 1.4 | – |
| Oc1ccc(/C=C/c2cc(O)cc(O)c2)cc1 [(E)-resveratrol, reference compound] | – | 29.9 ± 1.8 | 21.0 ± 2.0 | – | – | – | – | – | – | over 50% | – | – | significantly increased the cell viability to almost basal levels, in a similar way to resveratrol treatment |
